Target: T1, Renin (Homo sapiens, UniProt P00797)
T1 sequence (P00797 whole entry): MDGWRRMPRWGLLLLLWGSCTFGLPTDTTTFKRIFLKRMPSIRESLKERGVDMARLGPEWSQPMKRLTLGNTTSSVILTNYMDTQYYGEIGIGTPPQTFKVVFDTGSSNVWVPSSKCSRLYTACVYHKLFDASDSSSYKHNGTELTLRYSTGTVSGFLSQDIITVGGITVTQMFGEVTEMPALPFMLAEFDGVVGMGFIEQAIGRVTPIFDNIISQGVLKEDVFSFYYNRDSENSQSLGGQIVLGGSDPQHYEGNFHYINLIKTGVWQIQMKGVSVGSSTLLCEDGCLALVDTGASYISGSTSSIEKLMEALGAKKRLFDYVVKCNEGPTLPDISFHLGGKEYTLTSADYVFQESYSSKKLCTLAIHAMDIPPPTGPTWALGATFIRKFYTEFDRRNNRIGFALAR
Assay: Binding affinity towards human renin was determined

| IC50 | Structure (SMILES) |
| --- | --- |
| > 100 µM | CCCCNC(=O)[C@H](C)C[C@H](O)[C@@H]1C[C@@H](C)[C@@H](c2ccccc2)N1C(=O)OCc1ccccc1 |
| > 100 µM | CCCCNC(=O)[C@H](C)C[C@H](O)[C@H](C[C@@H](C)Cc1ccccc1)NC(=O)OC(C)(C)C |
| > 100 µM | CCCCNC(=O)[C@H](C)C[C@H](O)C1C[C@@H](C)[C@@H](c2ccccc2)N1C(=O)OC(C)(C)C (some centres undefined) |
| 37 µM | CCCCNC(=O)[C@H](C)C[C@H](O)[C@@H](N)C[C@@H](C)Cc1ccccc1 |
